Experimental data: PubChem BioAssay AID248 (DTP/NCI, 2004)
Toxic doses and inconclusive results are not listed.

Tested on: L1210 leukemia ip in BDF1 mice, survival T/C
Experiment: NCI In Vivo Anticancer Drug Screen. Data for tumor model L1210 Leukemia (intraperitoneal) in B6D2F1 (BDF1) mice
Conditions: endpoint: mean survival time, higher = longer survival
Procedure, shortened: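 Mice bearing the transplanted tumor received compound or vehicle. Survival of the treated group was divided by that of the vehicle-treated control group to give the ratio.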

[1] = dose: 50.0 mg/kg/injection, schedule: Q01DX009 (ip), vehicle: saline with Tween-80
[2] = dose: 100.0 mg/kg/injection, schedule: Q01DX009 (ip), vehicle: saline with Tween-80
[3] = dose: 200.0 mg/kg/injection, schedule: Q01DX009 (ip), vehicle: saline with Tween-80
[4] = dose: 100.0 mg/kg/injection, schedule: Q01DX009 (ip), vehicle: saline
[5] = dose: 100.0 mg/kg/injection, schedule: Q04DX003 (ip), vehicle: saline
[6] = dose: 200.0 mg/kg/injection, schedule: Q01DX009 (ip), vehicle: saline
[7] = dose: 200.0 mg/kg/injection, schedule: Q04DX003 (ip), vehicle: saline
[8] = dose: 400.0 mg/kg/injection, schedule: Q01DX009 (ip), vehicle: saline
[9] = dose: 400.0 mg/kg/injection, schedule: Q04DX003 (ip), vehicle: saline
[10] = dose: 100.0 mg/kg/injection, schedule: Q01DX009 (ip), vehicle: Klucel (hydroxypropylcellulose) (HPC)
[11] = dose: 200.0 mg/kg/injection, schedule: Q01DX009 (ip), vehicle: Klucel (hydroxypropylcellulose) (HPC)
[12] = dose: 400.0 mg/kg/injection, schedule: Q01DX009 (ip), vehicle: Klucel (hydroxypropylcellulose) (HPC)

Q: Which results are given for `CC(C(=O)C(Cc1ccccc1)c1ccccc1)C1CCC2C3C(OC=O)CC4CC(OC=O)CCC4(C)C3CC(OC=O)C12C` (stereo not given)?
A: T/C (dose: 12.5 mg/kg/injection, schedule: Q01DX009 (ip), vehicle: saline with Tween-80): 90 % of control; T/C (dose: 25.0 mg/kg/injection, schedule: Q01DX009 (ip), vehicle: saline with Tween-80): 87 % of control; T/C [1]: 90 % of control; T/C [2]: 91 % of control; T/C [3]: 88 % of control

Q: Which results are given for `O=[N+]([O-])c1cc(C(F)(F)F)cc([N+](=O)[O-])c1Cl`?
A: T/C (dose: 12.5 mg/kg/injection, schedule: Q01DX001 (ip), vehicle: Klucel (hydroxypropylcellulose) (HPC)): 91 % of control; T/C (dose: 25.0 mg/kg/injection, schedule: Q01DX001 (ip), vehicle: Klucel (hydroxypropylcellulose) (HPC)): 91 % of control

Q: Which results are given for `C[C@@H]1CCC[C@@H](NC(=O)N(CCCl)N=O)C1`?
A: T/C (dose: 6.7 mg/kg/injection, schedule: Q01DX001 (ip), vehicle: saline with Tween-80): 108 % of control; T/C (dose: 10.0 mg/kg/injection, schedule: Q01DX001 (ip), vehicle: saline with Tween-80): 113 % of control; T/C (dose: 15.0 mg/kg/injection, schedule: Q01DX001 (ip), vehicle: saline with Tween-80): 124 % of control; T/C (dose: 18.7 mg/kg/injection, schedule: Q01DX009 (ip), vehicle: Klucel (hydroxypropylcellulose) (HPC)): 188 % of control; T/C (dose: 34.0 mg/kg/injection, schedule: Q01DX001 (ip), vehicle: saline with Tween-80): 166 % of control; T/C (dose: 37.5 mg/kg/injection, schedule: Q01DX009 (ip), vehicle: Klucel (hydroxypropylcellulose) (HPC)): 328 % of control; T/C (dose: 50.0 mg/kg/injection, schedule: Q01DX001 (ip), vehicle: saline with Tween-80): 293 % of control; T/C (dose: 75.0 mg/kg/injection, schedule: Q01DX001 (ip), vehicle: saline with Tween-80): 484 % of control; T/C (dose: 75.0 mg/kg/injection, schedule: Q01DX009 (ip), vehicle: Klucel (hydroxypropylcellulose) (HPC)): 198 % of control; T/C (dose: 112.0 mg/kg/injection, schedule: Q01DX001 (ip), vehicle: saline with Tween-80): 444 % of control; T/C (dose: 150.0 mg/kg/injection, schedule: Q01DX009 (ip), vehicle: Klucel (hydroxypropylcellulose) (HPC)): 106 % of control; T/C (dose: 168.0 mg/kg/injection, schedule: Q01DX001 (ip), vehicle: saline with Tween-80): 434 % of control

Q: What does the source list for `CCCC(=O)Oc1ccc2c(C)cc(=O)oc2c1`?
A: T/C [2]: 102 % of control; T/C (dose: 100.0 mg/kg/injection, schedule: Q04DX003 (ip), vehicle: saline with Tween-80): 94 % of control; T/C [3]: 104 % of control; T/C (dose: 200.0 mg/kg/injection, schedule: Q04DX003 (ip), vehicle: saline with Tween-80): 100 % of control; T/C (dose: 400.0 mg/kg/injection, schedule: Q01DX009 (ip), vehicle: saline with Tween-80): 106 % of control; T/C (dose: 400.0 mg/kg/injection, schedule: Q04DX003 (ip), vehicle: saline with Tween-80): 100 % of control

Q: Which results are given for `COC(=O)C1CCC1(C#N)C(=O)OC` (stereo not given)?
A: T/C [4]: 93 % of control; T/C [5]: 98 % of control; T/C [6]: 92 % of control; T/C [7]: 98 % of control; T/C [8]: 109 % of control; T/C [9]: 106 % of control

Q: For `CCCCCCCCCC(=O)N1C(C)CCCC1C` (stereo not given), which T/C (dose: 100.0 mg/kg/injection, schedule: Q04DX002 (ip), vehicle: saline) is on record?
A: 94 % of control

Q: What about the T/C (dose: 200.0 mg/kg/injection, schedule: Q04DX002 (ip), vehicle: saline) of the same compound?
A: 105 % of control

Q: What about the T/C (dose: 400.0 mg/kg/injection, schedule: Q04DX002 (ip), vehicle: saline) of the same compound?
A: 105 % of control

Q: Which T/C (dose: 100.0 mg/kg/injection, schedule: Q04DX002 (ip), vehicle: saline with Tween-80) does the source give for `N#C/C(=C\C1CC(Br)CCC1O)C1CCC([N+](=O)[O-])CC1` (stereo not given) here?
A: 97 % of control

Q: And the T/C (dose: 200.0 mg/kg/injection, schedule: Q04DX002 (ip), vehicle: saline with Tween-80)?
A: 86 % of control

Q: Which results are given for `COc1ccc2c(c1)c(-n1cc([N+](=O)[O-])nc1C)c(C)n2C(=O)c1ccc(Cl)cc1`?
A: T/C (dose: 50.0 mg/kg/injection, schedule: Q01DX009 (ip), vehicle: Klucel (hydroxypropylcellulose) (HPC)): 97 % of control; T/C [10]: 97 % of control; T/C [11]: 93 % of control

Q: For `Cc1c(S(=O)(=O)F)ccc(O)c1[N+](=O)[O-]`, which T/C [10] is on record?
A: 104 % of control

Q: What about the T/C [11] of the same compound?
A: 104 % of control

Q: And the T/C [12]?
A: 110 % of control

Q: For `COc1ccccc1-n1c(O)c(N=Nc2ccc(Cl)cc2)c(=O)n(-c2ccc(Cl)cc2)c1=S`, which T/C (dose: 75.0 mg/kg/injection, schedule: Q04DX003 (ip), vehicle: Klucel (hydroxypropylcellulose) (HPC)) is on record?
A: 94 % of control

Q: And the T/C (dose: 100.0 mg/kg/injection, schedule: Q01DX001 (ip), vehicle: Klucel (hydroxypropylcellulose) (HPC))?
A: 94 % of control

Q: What about the T/C (dose: 150.0 mg/kg/injection, schedule: Q04DX003 (ip), vehicle: Klucel (hydroxypropylcellulose) (HPC)) of the same compound?
A: 103 % of control

Q: What about the T/C (dose: 200.0 mg/kg/injection, schedule: Q01DX001 (ip), vehicle: Klucel (hydroxypropylcellulose) (HPC)) of the same compound?
A: 100 % of control

Q: What about the T/C (dose: 300.0 mg/kg/injection, schedule: Q04DX003 (ip), vehicle: Klucel (hydroxypropylcellulose) (HPC)) of the same compound?
A: 90 % of control

Q: Which results are given for `Cc1ccc(CC(C)(O)CC(C)(O)Cc2ccc(C)cc2)cc1` (stereo not given)?
A: T/C [5]: 100 % of control; T/C [7]: 93 % of control; T/C [9]: 93 % of control

Q: What does the source list for `O=C(CCCN1CCC(O)(c2ccc(Cl)cc2)CC1)c1ccc(F)cc1`?
A: T/C (dose: 1.25 mg/kg/injection, schedule: Q01DX009 (ip), vehicle: saline): 90 % of control; T/C (dose: 2.5 mg/kg/injection, schedule: Q01DX009 (ip), vehicle: Klucel (hydroxypropylcellulose) (HPC)): 92 % of control; T/C (dose: 2.5 mg/kg/injection, schedule: Q01DX009 (ip), vehicle: saline): 100 % of control; T/C (dose: 2.5 mg/kg/injection, schedule: Q04DX003 (ip), vehicle: saline): 114 % of control; T/C (dose: 5.0 mg/kg/injection, schedule: Q01DX009 (ip), vehicle: Klucel (hydroxypropylcellulose) (HPC)): 95 % of control; T/C (dose: 5.0 mg/kg/injection, schedule: Q01DX009 (ip), vehicle: saline): 113 % of control; T/C (dose: 5.0 mg/kg/injection, schedule: Q04DX003 (ip), vehicle: saline): 101 % of control; T/C (dose: 10.0 mg/kg/injection, schedule: Q01DX009 (ip), vehicle: Klucel (hydroxypropylcellulose) (HPC)): 100 % of control; T/C (dose: 10.0 mg/kg/injection, schedule: Q01DX009 (ip), vehicle: saline): 121 % of control; T/C (dose: 10.0 mg/kg/injection, schedule: Q04DX003 (ip), vehicle: saline): 124 % of control; T/C (dose: 20.0 mg/kg/injection, schedule: Q01DX009 (ip), vehicle: Klucel (hydroxypropylcellulose) (HPC)): 111 % of control; T/C (dose: 20.0 mg/kg/injection, schedule: Q01DX009 (ip), vehicle: saline): 90 % of control; T/C (dose: 20.0 mg/kg/injection, schedule: Q04DX003 (ip), vehicle: saline): 101 % of control; T/C (dose: 40.0 mg/kg/injection, schedule: Q01DX009 (ip), vehicle: saline): 90 % of control; T/C (dose: 40.0 mg/kg/injection, schedule: Q04DX003 (ip), vehicle: saline): 101 % of control; T/C (dose: 80.0 mg/kg/injection, schedule: Q04DX003 (ip), vehicle: Klucel (hydroxypropylcellulose) (HPC)): 110 % of control; T/C (dose: 160.0 mg/kg/injection, schedule: Q04DX003 (ip), vehicle: Klucel (hydroxypropylcellulose) (HPC)): 106 % of control

Q: What does the source list for `CCCCCSC`?
A: T/C [4]: 93 % of control; T/C [5]: 102 % of control; T/C [6]: 95 % of control; T/C [7]: 105 % of control; T/C [8]: 88 % of control; T/C [9]: 100 % of control

Q: What does the source list for `CC1(C)C2CC3C(=CCCC3C#N)C1C2` (stereo not given)?
A: T/C [10]: 105 % of control; T/C (dose: 100.0 mg/kg/injection, schedule: Q04DX003 (ip), vehicle: Klucel (hydroxypropylcellulose) (HPC)): 97 % of control; T/C [11]: 97 % of control; T/C (dose: 200.0 mg/kg/injection, schedule: Q04DX003 (ip), vehicle: Klucel (hydroxypropylcellulose) (HPC)): 95 % of control; T/C [12]: 103 % of control; T/C (dose: 400.0 mg/kg/injection, schedule: Q04DX003 (ip), vehicle: Klucel (hydroxypropylcellulose) (HPC)): 92 % of control

Q: `CS(=O)(=O)/C=C(\I)c1ccccc1` was tested. Which T/C (dose: 100.0 mg/kg/injection, schedule: Q01DX001 (ip), vehicle: saline) did it give?
A: 97 % of control

Q: And the T/C (dose: 200.0 mg/kg/injection, schedule: Q01DX001 (ip), vehicle: saline)?
A: 97 % of control

Q: What about the T/C (dose: 400.0 mg/kg/injection, schedule: Q01DX001 (ip), vehicle: saline) of the same compound?
A: 93 % of control

Q: `Cc1cccc(C2=N/C(=C\c3cccc4ccccc34)C(=O)O2)c1` was tested. Which T/C [1] did it give?
A: 102 % of control

Q: What about the T/C [2] of the same compound?
A: 91 % of control

Q: What about the T/C [3] of the same compound?
A: 91 % of control
